# Measured values taken from patent US20210228695A1 (REALTA HOLDINGS, LLC, priority 2018, published 2021).
# Read-outs that look alike come from different tables or passages of the source. Ends that are not written are not given here.
# Experiments:
# [1] = human, in vivo
# Description: A patient with chronic active Epstein-Barr virus disease and hemophagocytic lymphohistiocytosis presented with ceftriaxone-induced hemolytic anemia. The patient had been evaluated in the emergency department for fever and possible sepsis after recently receiving chemotherapy. In the emergency department they received a dose of ceftriaxone (50 mg/kg). The patient had received ceftriaxone on three previous occasions with no history of adverse reaction. Within an hour they developed back pain, tachycardia and tachypnea. Over the next three hours they developed worsening distress, failed continuous positive airway pressure and required endotracheal intubation with mechanical ventilation. They also experienced hypotension requiring fluid resuscitation and a continuous epinephrine infusion.
# Four hours later, their hemoglobin had decreased to 6.1 g/dL, followed by a point-of-care hemoglobin of 5.1 g/dL. They received four packed red blood cell transfusions (each 10 mL/kg) within 72 hours, after which, their hemoglobin stabilized at their initial baseline (FIG. 1A). […] There were spherocytes on their peripheral blood smear as well as red blood cell aggregation. On admission, one day later, and five days later, their total bilirubin level was 1.5 mg/dL, 10.7 mg/dL, and 23.1 mg/dL respectively, with 90% being conjugated. […]
# [2] = patients frequently exposed to ceftriaxone; cited from earlier work
# [3] = tested on: classical complement pathway; conditions: 0.75 mM PIC1 and ceftriaxone together
# [4] = PIC1 administered to a patient with ceftriaxone-induced hemolysis (Example 2); format: in vivo, human
# Description: A patient is tested for possible hemolysis as a result of treatment with ceftriaxone. The patient has an erythrocyte hemoglobin level of 6.5 g/dL, a total bilirubin level of 12.4 mg/dL, and an LDH of 16,500. The patient receives packed red blood cell transfusion, and ceftriaxone is discontinued.
# Four hours later, the patient has an erythrocyte hemoglobin level of 7.9 g/dL, a total bilirubin level of 8.4 mg/dL, and an LDH of 10,500, all of which show improvement. […] The bilirubin and LDH levels continue to improve. The patient receives additional packed red blood cell transfusions as needed.
total bilirubin level [1],Molecule,patients developing anti-ceftriaxone antibodies [2],hemolysis relative to the no ceftriaxone control [3],"clinical outcome ([4]; 150 mg/kg PIC1, then daily dose for three days, with transfusions as needed)","total bilirubin level ([4]; four hours after 150 mg/kg PIC1, 12.4 mg/dL before)","erythrocyte hemoglobin level ([4]; four hours after 150 mg/kg PIC1, 6.5 g/dL before)","LDH ([4]; four hours after 150 mg/kg PIC1, 16,500 before)"
23.1 mg/dL,"CO/N=C(\C(=O)N[C@@H]1C(=O)N2C(C(=O)O)=C(CSc3nc(=O)c(=O)[nH]n3C)CS[C@H]12)c1csc(N)n1 [ceftriaxone, reference compound]",12.5%,,,,,
,IALILEPICCQERAA-dPEG24 (cysteine pairing not given here) [PIC1],,returned hemolysis to the level of the no ceftriaxone control,completely recovered from the hemolysis,8.4 mg/dL,7.9 g/dL,"10,500"
